Data from patent publication US20070197522A1, “Dpp-iv inhibitors” (priority 2004, published 2007).

Each compound was assayed against T1, DPP-IV (Homo sapiens, UniProt P27487) (assay: Inhibition of DPP-IV peptidase activity, continuous fluorimetric assay (Gly-Pro-AMC cleavage)). Details: inhibition of DPP-IV peptidase activity; 50 pM DPP-IV, 16 μM Gly-Pro-AMC, pH 7.4, 25° C.; values grouped in 3 classes; read-out: IC50.
T1 construct: Soluble human DPP-IV lacking the transmembrane anchor (Gly31-Pro766) was expressed in a recombinant YEAST-strain; Pre-Pro-alpha-mating factor leader (secretion fusion) (N, cleaved yes); made in house
T1 sequence (P27487 31-766): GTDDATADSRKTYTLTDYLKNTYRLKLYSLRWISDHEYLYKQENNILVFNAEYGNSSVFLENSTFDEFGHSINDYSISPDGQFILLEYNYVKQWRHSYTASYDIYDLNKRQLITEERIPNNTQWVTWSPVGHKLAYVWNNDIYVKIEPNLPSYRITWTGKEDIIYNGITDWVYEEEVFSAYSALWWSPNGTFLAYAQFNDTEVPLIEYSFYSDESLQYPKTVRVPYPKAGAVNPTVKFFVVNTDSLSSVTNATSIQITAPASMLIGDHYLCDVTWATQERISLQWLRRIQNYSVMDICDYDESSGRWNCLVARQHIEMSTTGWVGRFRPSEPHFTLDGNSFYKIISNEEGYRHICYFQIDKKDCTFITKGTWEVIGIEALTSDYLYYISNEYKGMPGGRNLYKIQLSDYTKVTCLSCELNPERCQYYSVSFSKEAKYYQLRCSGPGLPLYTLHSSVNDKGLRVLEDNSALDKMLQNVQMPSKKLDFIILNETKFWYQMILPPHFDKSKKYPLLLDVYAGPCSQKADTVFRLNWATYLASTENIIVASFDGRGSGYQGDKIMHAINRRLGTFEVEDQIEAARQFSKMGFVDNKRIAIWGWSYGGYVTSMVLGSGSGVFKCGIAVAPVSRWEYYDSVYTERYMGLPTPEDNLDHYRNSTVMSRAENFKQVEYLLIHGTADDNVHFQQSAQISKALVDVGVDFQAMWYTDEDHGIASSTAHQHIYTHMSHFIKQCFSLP
Type: biochemical, human and porcine
Experimental: Inhibition of DPP-IV peptidase activity was monitored with a continuous fluorimetric assay. This assay is based on the cleavage of the substrate Gly-Pro-AMC (Bachem) by DPP-IV, releasing free AMC. The assay is carried out in 96-well microtiterplates. In a total volume of 100 μL, compounds are preincubated with 50 pM DPP-IV employing a buffer containing 10 mM Hepes, 150 mM NaCl, 0.005% Tween 20 (pH 7.4). […] The final concentration of DMSO is 1%. The inhibitory potential of the compounds were determined.
Soluble human DPP-IV lacking the transmembrane anchor (Gly31-Pro766) was expressed in a recombinant YEAST-strain as Pre-Pro-alpha-mating fusion. The secreted product (rhuDPP-IV-Gly31-Pro766) was purified from fermentation broth (>90% purity).

Compound	IC50 [nM]
CN(C(=O)C[C@H](N)Cc1ccccc1F)C(c1ccccc1)c1ccccc1 [Example 105]	101 to 1000
N[C@@H](CC(=O)NCCc1ccc(F)cc1)Cc1ccccc1F [Example 110]	1000 to 2000
NC(CC(=O)NCCc1cccc(F)c1)Cc1ccccc1F (stereo not shown) [Example 111]	1000 to 2000
N[C@@H](CC(=O)NCCc1cccc(Cl)c1)Cc1ccccc1F [Example 112]	101 to 1000
N[C@@H](CC(=O)NCCc1ccccc1F)Cc1ccccc1F [Example 113]	101 to 1000
N[C@@H](CC(=O)NCCc1c(F)cccc1Cl)Cc1ccccc1F [Example 114]	101 to 1000
Cc1ccc(CNC(=O)C[C@H](N)Cc2ccccc2F)cc1 [Example 115]	101 to 1000
N[C@@H](CC(=O)NCc1cccc2cnccc12)Cc1ccccc1F [Example 116]	1000 to 2000
N[C@@H](CC(=O)NCc1ccccc1F)Cc1ccccc1F [Example 117]	101 to 1000
N[C@@H](CC(=O)NCc1cccc(F)c1)Cc1ccccc1F [Example 118]	101 to 1000
NC(CC(=O)NC1CCc2ccccc21)Cc1ccccc1F (stereo not shown) [Example 120]	1000 to 2000
CN(Cc1ccccc1)C(=O)C[C@H](N)Cc1ccccc1F [Example 121]	101 to 1000
CN(Cc1cccnc1)C(=O)C[C@H](N)Cc1ccccc1F [Example 122]	101 to 1000
CN(Cc1ccccc1Cl)C(=O)C[C@H](N)Cc1ccccc1F [Example 123]	101 to 1000
CN(Cc1cccc(C(F)(F)F)c1)C(=O)C[C@H](N)Cc1ccccc1F [Example 124]	101 to 1000
CN(Cc1ccc(F)cc1)C(=O)C[C@H](N)Cc1ccccc1F [Example 125]	101 to 1000
COc1ccc(CN(C)C(=O)C[C@H](N)Cc2ccccc2F)cc1 [Example 126]	101 to 1000
CN1CCN(c2ccc(CNC(=O)C[C@H](N)Cc3ccccc3F)cc2)CC1 [Example 127]	101 to 1000
N#Cc1ccc(CNC(=O)C[C@H](N)Cc2ccccc2F)cc1 [Example 129]	101 to 1000

Compound	IC50 [nM]
CCOc1ccccc1CCNC(=O)C[C@H](N)Cc1ccccc1F [Example 130]	101 to 1000
N[C@@H](CC(=O)NCc1cccc2ncccc12)Cc1ccccc1F [Example 138]	101 to 1000
N[C@@H](CC(=O)NCc1cccc(OC(F)F)c1)Cc1ccccc1F [Example 139]	101 to 1000
Cc1nn(-c2ccccc2)c(C)c1CNC(=O)C[C@H](N)Cc1ccccc1F [Example 140]	101 to 1000
CS(=O)(=O)c1ccc(CNC(=O)C[C@H](N)Cc2ccccc2F)cc1 [Example 141]	101 to 1000
COc1ccc(Oc2cccc(F)c2CNC(=O)C[C@H](N)Cc2ccccc2F)cc1 [Example 142]	101 to 1000
CN(C)CCOc1ccc(CNC(=O)C[C@H](N)Cc2ccccc2F)cc1 [Example 143]	1000 to 2000
NC(CC(=O)N(Cc1ccccc1F)C1CC1)Cc1ccccc1F (stereo not shown) [Example 144]	101 to 1000
N[C@@H](CC(=O)N(Cc1cccnc1)C1CC1)Cc1ccccc1F [Example 145]	101 to 1000
Cn1c(CNC(=O)C[C@H](N)Cc2ccccc2F)nc2ccccc21 [Example 146]	101 to 1000
N[C@@H](CC(=O)NCc1ccc(S(N)(=O)=O)cc1)Cc1ccccc1F [Example 147]	101 to 1000
N[C@@H](CC(=O)NCCNC(=O)c1ccccn1)Cc1ccccc1F [Example 148]	101 to 1000
Cc1onc(-c2ccccc2)c1CNC(=O)C[C@H](N)Cc1ccccc1F [Example 149]	101 to 1000
Cc1ccccc1-n1nc(C)c(CNC(=O)C[C@H](N)Cc2ccccc2F)c1C [Example 151]	101 to 1000
N[C@@H](CC(=O)NCc1cc(-c2ccc(Cl)cc2)no1)Cc1ccccc1F [Example 152]	101 to 1000
N[C@@H](CC(=O)NCc1ccc(OC(F)F)cc1)Cc1ccccc1F [Example 153]	1000 to 2000
N[C@@H](CC(=O)NCc1ccccc1N1CCCCC1)Cc1ccccc1F [Example 154]	101 to 1000
N[C@@H](CC(=O)N(CCN1CCOCC1)Cc1cccnc1)Cc1ccccc1F [Example 155]	101 to 1000
